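Assay format: 96-well plates, 48-hour exposure. GI50 = concentration required for 50% inhibition of growth.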 The source made the active and inactive calls. No stated cut-off is given here; in the data, active = GI50 up to about 1.1 µM and inactive = higher.
What was measured:
Experiment in all cases: DTP human tumour cell line panel, 48 h
BT-549 = system: BT-549
NCI-H460 = system: NCI-H460
HCT-15 = system: HCT-15
OVCAR-4 = system: OVCAR-4
OVCAR-8 = system: OVCAR-8
T47D = system: T47D
IGROV-1 = system: IGROV-1
SW-620 = system: SW-620
SF-268 = system: SF-268
SNB-19 = system: SNB-19
HCT-116 = system: HCT-116
UACC-62 = system: UACC-62
SK-MEL-5 = system: SK-MEL-5
A549 = system: A549
CCRF-CEM = system: CCRF-CEM
TK-10 = system: TK-10
K562 = system: K562
HOP-62 = system: HOP-62
SK-MEL-2 = system: SK-MEL-2
KM12 = system: KM12

Structure (SMILES) | GI50 (BT-549) | GI50 (NCI-H460) | GI50 (HCT-15) | GI50 (OVCAR-4) | GI50 (OVCAR-8) | GI50 (T47D) | GI50 (IGROV-1) | GI50 (SW-620) | GI50 (SF-268) | GI50 (SNB-19) | GI50 (HCT-116) | GI50 (UACC-62) | GI50 (SK-MEL-5) | GI50 (A549) | GI50 (CCRF-CEM) | GI50 (TK-10) | GI50 (K562) | GI50 (HOP-62) | GI50 (SK-MEL-2) | GI50 (KM12)
O=C1CSC(c2ccc(Cl)cc2Cl)N1c1ccc(Oc2ccc(Cl)cc2)c(Cl)c1 (stereo not given) | 22.2 µM (inactive) | 27.4 µM (inactive) | 25.6 µM | 23.8 µM (inactive) | 29.9 µM (inactive) | 23.4 µM (inactive) | 28.1 µM (inactive) | 36.5 µM (inactive) | 16 µM (inactive) | 23.6 µM (inactive) | 16.9 µM (inactive) | 21.9 µM (inactive) | 19 µM (inactive) | 27 µM (inactive) | 13.5 µM (inactive) | 51.4 µM (inactive) | 26.2 µM (inactive) | 23.8 µM (inactive) | 22.4 µM (inactive) | 20.2 µM (inactive)
O=C(CCc1ccc(O)c(O)c1)OCCc1ccccc1 | > 100 µM (inactive) | > 100 µM (inactive) | > 53 µM | 29.6 µM (inactive) | 23.1 µM (inactive) | > 96.4 µM (inactive) | 54.1 µM (inactive) | 31.1 µM (inactive) | > 100 µM (inactive) | > 100 µM (inactive) | 44.6 µM (inactive) | 45.4 µM (inactive) | 42.2 µM (inactive) | > 100 µM (inactive) | 4.86 µM (inactive) | > 100 µM (inactive) | 20.4 µM (inactive) | > 31.6 µM (inactive) | > 100 µM (inactive) | > 100 µM (inactive)
O=c1[nH]c2cc(C(F)(F)F)ccc2nc1C(F)(F)F | 44.2 µM (inactive) | > 100 µM (inactive) | 37.2 µM | 51.5 µM (inactive) | 36 µM (inactive) | 36.6 µM (inactive) | 29.3 µM (inactive) | 53.3 µM (inactive) | 40.4 µM (inactive) | 35.6 µM (inactive) | 27.5 µM (inactive) | 43.2 µM (inactive) | 13.8 µM (inactive) | 32.6 µM (inactive) | 30.8 µM (inactive) | 49.7 µM (inactive) | 50.2 µM (inactive) | 18.2 µM (inactive) | 33.7 µM (inactive) | 23.7 µM (inactive)
CCOC(=O)c1nc2ccccc2n(CC)c1=O | > 100 µM (inactive) | 81.7 µM (inactive) | > 100 µM | > 100 µM (inactive) | > 100 µM (inactive) | > 100 µM (inactive) | > 100 µM (inactive) | > 100 µM (inactive) | > 100 µM (inactive) | > 100 µM (inactive) | > 100 µM (inactive) | > 100 µM (inactive) | > 100 µM (inactive) | > 100 µM (inactive) | > 100 µM (inactive) | > 100 µM (inactive) | > 100 µM (inactive) | > 100 µM (inactive) | > 100 µM (inactive) | > 100 µM (inactive)
CC(C)(/N=N/C(C)(C)C(=O)NCCO)C(=O)NCCO | > 100 µM (inactive) | > 100 µM (inactive) | > 100 µM | > 100 µM (inactive) | > 100 µM (inactive) | > 100 µM (inactive) | > 100 µM (inactive) | > 100 µM (inactive) | > 100 µM (inactive) | > 100 µM (inactive) | > 100 µM (inactive) | > 100 µM (inactive) | > 100 µM (inactive) | > 100 µM (inactive) | > 100 µM (inactive) | > 100 µM (inactive) | > 100 µM (inactive) | > 100 µM (inactive) | > 100 µM (inactive) | > 100 µM (inactive)
N#Cc1c(Nc2ccc(F)cc2)[n+]([O-])c2ccc(Cl)cc2[n+]1[O-] | 8.93 µM (inactive) | 2.38 µM (inactive) | 2.5 µM | 2.03 µM (inactive) | 3.55 µM (inactive) | 2.89 µM (inactive) | 1.33 µM (inactive) | 3.78 µM (inactive) | 2.53 µM (inactive) | 6 µM (inactive) | 3.05 µM (inactive) | 3.66 µM (inactive) | 3.91 µM (inactive) | 0.568 µM (active) | 2.62 µM (inactive) | 19.9 µM (inactive) | 2.47 µM (inactive) | 4.52 µM (inactive) | 3.67 µM (inactive) | 5.57 µM (inactive)
CN(/N=C/c1cccc2cccnc12)c1ccc([N+](=O)[O-])cc1[N+](=O)[O-] | 21.3 µM (inactive) | 46 µM (inactive) | 63 µM | 20.7 µM (inactive) | 32.7 µM (inactive) | 23.1 µM (inactive) | 24.5 µM (inactive) | 99.5 µM (inactive) | 18.5 µM (inactive) | 11.3 µM (inactive) | 35.1 µM (inactive) | 25.1 µM (inactive) | 52.5 µM (inactive) | 48.5 µM (inactive) | > 96.6 µM (inactive) | 29 µM (inactive) | > 100 µM (inactive) | 8.61 µM (inactive) | 14.9 µM (inactive) | > 100 µM (inactive)
CN(CCN(C)CCN(C)C(=O)Cc1ccc(Cl)c(Cl)c1)CCN1CCCC1 | 25.7 µM (inactive) | 26.9 µM (inactive) | 37.3 µM | 77.6 µM (inactive) | 34.9 µM (inactive) | 24.6 µM (inactive) | 31.1 µM (inactive) | 20.3 µM (inactive) | 41.2 µM (inactive) | 39 µM (inactive) | 25 µM (inactive) | 4.52 µM (inactive) | 15.2 µM (inactive) | 37 µM (inactive) | 11.6 µM (inactive) | 26.1 µM (inactive) | 3.24 µM (inactive) | 25.4 µM (inactive) | 16 µM (inactive) | 35 µM (inactive)
CN(C)C(=S)SCC(N)=O | > 100 µM (inactive) | > 100 µM (inactive) | > 100 µM | > 100 µM (inactive) | > 100 µM (inactive) | > 100 µM (inactive) | > 100 µM (inactive) | > 100 µM (inactive) | > 100 µM (inactive) | > 100 µM (inactive) | > 100 µM (inactive) | > 100 µM (inactive) | 65.2 µM (inactive) | > 100 µM (inactive) | > 100 µM (inactive) | > 100 µM (inactive) | > 100 µM (inactive) | > 100 µM (inactive) | > 100 µM (inactive) | > 100 µM (inactive)

From ChEMBL document CHEMBL1201862, “PubChem BioAssay data set” (2004)
